Legend:
Details in all cases: compound 10.0 µM
[1] = biological target: FGFR3 (human) (UniProt P22607)
[2] = biological target: CAMK1 (human) (UniProt Q14012)
[3] = biological target: NTRK1 (human) (UniProt P04629)
[4] = biological target: MAPK8 (human) (UniProt P45983)
[5] = biological target: MYO3B (human) (UniProt Q8WXR4)
[6] = biological target: TTK (human) (UniProt P33981)
[7] = biological target: NTRK3 (human) (UniProt Q16288)
[8] = biological target: TEC (human) (UniProt P42680)
[9] = biological target: NEK7 (human) (UniProt Q8TDX7)
[10] = biological target: PRKCD (human) (UniProt Q05655)
[11] = biological target: RPS6KA2 KD1 KD2 (human) (UniProt Q15349)
[12] = biological target: CDK1 CCNA2 (human) (UniProt P20248+P06493)
[13] = biological target: SRPK3 (human) (UniProt Q9UPE1)
[14] = biological target: RPS6KB1 (human) (UniProt P23443)
[15] = biological target: CDK9 CCNT1 (human) (UniProt O60563+P50750)
Sequence of CDK9 CCNT1 (human) (O60563 whole entry, looked up): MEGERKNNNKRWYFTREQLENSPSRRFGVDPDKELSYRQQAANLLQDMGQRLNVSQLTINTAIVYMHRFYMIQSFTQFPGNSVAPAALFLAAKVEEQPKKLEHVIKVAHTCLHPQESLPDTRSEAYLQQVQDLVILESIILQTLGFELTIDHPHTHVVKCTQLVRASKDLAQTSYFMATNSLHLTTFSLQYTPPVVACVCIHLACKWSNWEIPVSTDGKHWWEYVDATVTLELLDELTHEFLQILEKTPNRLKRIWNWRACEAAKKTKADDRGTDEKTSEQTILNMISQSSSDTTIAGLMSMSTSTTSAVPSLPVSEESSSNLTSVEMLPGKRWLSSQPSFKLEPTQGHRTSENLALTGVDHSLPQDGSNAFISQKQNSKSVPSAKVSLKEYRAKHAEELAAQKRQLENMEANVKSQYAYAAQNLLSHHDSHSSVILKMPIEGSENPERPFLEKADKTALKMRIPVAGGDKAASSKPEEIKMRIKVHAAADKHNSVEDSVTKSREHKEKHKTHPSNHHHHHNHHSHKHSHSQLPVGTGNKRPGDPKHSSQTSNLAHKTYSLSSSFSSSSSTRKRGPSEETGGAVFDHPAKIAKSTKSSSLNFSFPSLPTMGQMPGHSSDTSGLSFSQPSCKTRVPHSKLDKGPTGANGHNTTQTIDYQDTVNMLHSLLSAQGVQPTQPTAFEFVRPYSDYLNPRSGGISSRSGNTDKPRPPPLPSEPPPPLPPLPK
Sequence of CDK9 CCNT1 (human) (P50750 whole entry, looked up): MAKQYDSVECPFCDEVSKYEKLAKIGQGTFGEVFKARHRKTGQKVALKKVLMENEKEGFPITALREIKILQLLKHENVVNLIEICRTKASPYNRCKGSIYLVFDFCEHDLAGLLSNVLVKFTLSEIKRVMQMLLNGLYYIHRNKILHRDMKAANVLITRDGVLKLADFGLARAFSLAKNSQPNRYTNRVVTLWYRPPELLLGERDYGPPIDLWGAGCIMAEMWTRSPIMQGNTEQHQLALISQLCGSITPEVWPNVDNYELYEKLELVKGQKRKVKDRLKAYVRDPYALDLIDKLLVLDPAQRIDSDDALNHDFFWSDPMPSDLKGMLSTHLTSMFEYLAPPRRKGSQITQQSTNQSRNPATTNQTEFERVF

[16] = biological target: MAPKAPK3 (human) (UniProt Q16644)
Sequence of MAPKAPK3 (human) (Q16644 whole entry, looked up): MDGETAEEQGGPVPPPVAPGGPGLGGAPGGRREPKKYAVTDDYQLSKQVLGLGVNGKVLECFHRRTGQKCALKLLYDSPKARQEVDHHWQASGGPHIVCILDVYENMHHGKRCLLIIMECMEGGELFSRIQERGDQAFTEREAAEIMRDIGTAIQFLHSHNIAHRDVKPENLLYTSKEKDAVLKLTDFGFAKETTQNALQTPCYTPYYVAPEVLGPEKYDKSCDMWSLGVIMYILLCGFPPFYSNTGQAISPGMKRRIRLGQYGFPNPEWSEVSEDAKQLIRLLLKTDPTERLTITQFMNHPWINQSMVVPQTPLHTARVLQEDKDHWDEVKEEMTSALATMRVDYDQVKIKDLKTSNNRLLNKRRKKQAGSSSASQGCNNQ

[17] = biological target: DMPK (human) (UniProt Q09013)
[18] = biological target: IGF1R (human) (UniProt P08069)
[19] = biological target: BRSK2 (human) (UniProt Q8IWQ3)
[20] = biological target: PNCK (human) (UniProt Q6P2M8)
[21] = biological target: PRKCG (human) (UniProt P05129)
[22] = biological target: SRPK2 (human) (UniProt P78362)
[23] = biological target: WNK2 (human) (UniProt Q9Y3S1)
[24] = biological target: STK4 (human) (UniProt Q13043)
[25] = biological target: PIM1 (human) (UniProt P11309)
[26] = biological target: PKN2 (human) (UniProt Q16513)
[27] = biological target: HIPK2 (human) (UniProt Q9H2X6)
[28] = biological target: PAK4 (human) (UniProt O96013)
[29] = biological target: GSK3A (human) (UniProt P49840)
[30] = biological target: MAP4K5 (human) (UniProt Q9Y4K4)
[31] = biological target: MAP2K6 (human) (UniProt P52564)
[32] = biological target: MAPK14 (human) (UniProt Q16539)
[33] = biological target: NUAK2 (human) (UniProt Q9H093)
[34] = biological target: HIPK4 (human) (UniProt Q8NE63)
[35] = biological target: PLK2 (human) (UniProt Q9NYY3)
[36] = biological target: CDK6 CCND1 (human) (UniProt Q00534+P24385)
[37] = biological target: FGFR4 (human) (UniProt P22455)
[38] = biological target: PAK1 (human) (UniProt Q13153)
Sequence of PAK1 (human) (Q13153 whole entry, looked up): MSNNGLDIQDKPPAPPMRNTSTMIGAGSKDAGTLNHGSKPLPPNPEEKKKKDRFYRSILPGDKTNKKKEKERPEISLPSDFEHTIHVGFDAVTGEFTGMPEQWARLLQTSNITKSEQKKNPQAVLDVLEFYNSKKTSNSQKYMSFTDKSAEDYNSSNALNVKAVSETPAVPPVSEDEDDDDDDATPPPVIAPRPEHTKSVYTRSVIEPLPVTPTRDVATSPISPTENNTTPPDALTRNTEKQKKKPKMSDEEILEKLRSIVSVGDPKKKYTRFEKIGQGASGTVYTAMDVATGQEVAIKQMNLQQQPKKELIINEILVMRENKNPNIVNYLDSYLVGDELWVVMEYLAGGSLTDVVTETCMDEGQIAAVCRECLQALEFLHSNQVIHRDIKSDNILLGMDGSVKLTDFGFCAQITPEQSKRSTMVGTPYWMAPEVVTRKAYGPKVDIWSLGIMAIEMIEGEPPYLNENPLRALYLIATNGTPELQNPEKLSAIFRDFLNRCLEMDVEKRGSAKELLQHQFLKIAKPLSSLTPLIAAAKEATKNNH

[39] = biological target: MST1R (human) (UniProt Q04912)
[40] = biological target: CSK (human) (UniProt P41240)
[41] = biological target: EPHB1 (human) (UniProt P54762)
[42] = biological target: CDC42BPA (human) (UniProt Q5VT25)
[43] = biological target: YES1 (human) (UniProt P07947)
[44] = biological target: CAMK2B (human) (UniProt Q13554)

Sequence of TTK (human) (P33981 whole entry, looked up): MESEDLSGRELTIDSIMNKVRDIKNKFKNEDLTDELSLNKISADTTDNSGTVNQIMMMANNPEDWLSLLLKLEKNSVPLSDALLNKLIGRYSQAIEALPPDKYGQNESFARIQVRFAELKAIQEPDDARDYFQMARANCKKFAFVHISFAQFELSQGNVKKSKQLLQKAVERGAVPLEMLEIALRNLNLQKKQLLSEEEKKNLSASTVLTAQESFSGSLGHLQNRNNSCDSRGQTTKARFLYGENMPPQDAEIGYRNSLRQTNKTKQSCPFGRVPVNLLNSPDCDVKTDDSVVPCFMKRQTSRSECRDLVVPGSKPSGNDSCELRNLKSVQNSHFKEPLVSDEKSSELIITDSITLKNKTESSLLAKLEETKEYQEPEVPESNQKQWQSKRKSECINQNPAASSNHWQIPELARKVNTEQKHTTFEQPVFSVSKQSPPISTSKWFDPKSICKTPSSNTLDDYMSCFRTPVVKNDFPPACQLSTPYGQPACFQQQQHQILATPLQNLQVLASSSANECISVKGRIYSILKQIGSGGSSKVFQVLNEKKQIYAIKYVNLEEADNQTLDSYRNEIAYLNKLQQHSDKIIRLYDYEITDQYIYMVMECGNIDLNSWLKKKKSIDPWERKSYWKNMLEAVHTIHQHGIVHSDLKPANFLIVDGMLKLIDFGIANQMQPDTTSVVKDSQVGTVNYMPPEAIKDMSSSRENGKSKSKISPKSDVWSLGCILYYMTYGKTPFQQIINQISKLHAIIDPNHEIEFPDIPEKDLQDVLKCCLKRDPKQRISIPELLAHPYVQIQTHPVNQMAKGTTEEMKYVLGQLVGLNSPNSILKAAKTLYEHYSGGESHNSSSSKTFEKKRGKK
Sequence of FGFR3 (human) (P22607 whole entry, looked up): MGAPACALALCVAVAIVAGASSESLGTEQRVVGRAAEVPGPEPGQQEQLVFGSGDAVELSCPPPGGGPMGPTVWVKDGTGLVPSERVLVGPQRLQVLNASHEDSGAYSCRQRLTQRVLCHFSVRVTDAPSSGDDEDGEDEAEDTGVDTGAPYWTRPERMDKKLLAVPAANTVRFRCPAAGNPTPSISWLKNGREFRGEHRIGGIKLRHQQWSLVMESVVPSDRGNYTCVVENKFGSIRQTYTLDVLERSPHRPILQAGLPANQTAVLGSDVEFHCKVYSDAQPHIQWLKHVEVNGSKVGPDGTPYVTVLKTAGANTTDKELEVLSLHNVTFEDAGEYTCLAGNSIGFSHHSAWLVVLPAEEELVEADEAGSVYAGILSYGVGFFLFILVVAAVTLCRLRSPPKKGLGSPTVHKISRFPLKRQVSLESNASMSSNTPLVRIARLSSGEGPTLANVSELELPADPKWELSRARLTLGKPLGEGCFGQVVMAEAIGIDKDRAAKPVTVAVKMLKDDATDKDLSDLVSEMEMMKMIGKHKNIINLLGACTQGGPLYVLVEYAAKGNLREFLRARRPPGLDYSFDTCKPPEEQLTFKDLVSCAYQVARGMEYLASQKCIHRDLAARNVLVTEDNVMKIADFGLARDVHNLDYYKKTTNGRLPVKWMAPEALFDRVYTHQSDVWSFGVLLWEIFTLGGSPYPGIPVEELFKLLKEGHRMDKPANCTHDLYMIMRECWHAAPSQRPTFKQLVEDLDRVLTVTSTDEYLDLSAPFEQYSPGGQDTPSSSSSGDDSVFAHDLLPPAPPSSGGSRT
Sequence of MYO3B (human) (Q8WXR4 whole entry, looked up): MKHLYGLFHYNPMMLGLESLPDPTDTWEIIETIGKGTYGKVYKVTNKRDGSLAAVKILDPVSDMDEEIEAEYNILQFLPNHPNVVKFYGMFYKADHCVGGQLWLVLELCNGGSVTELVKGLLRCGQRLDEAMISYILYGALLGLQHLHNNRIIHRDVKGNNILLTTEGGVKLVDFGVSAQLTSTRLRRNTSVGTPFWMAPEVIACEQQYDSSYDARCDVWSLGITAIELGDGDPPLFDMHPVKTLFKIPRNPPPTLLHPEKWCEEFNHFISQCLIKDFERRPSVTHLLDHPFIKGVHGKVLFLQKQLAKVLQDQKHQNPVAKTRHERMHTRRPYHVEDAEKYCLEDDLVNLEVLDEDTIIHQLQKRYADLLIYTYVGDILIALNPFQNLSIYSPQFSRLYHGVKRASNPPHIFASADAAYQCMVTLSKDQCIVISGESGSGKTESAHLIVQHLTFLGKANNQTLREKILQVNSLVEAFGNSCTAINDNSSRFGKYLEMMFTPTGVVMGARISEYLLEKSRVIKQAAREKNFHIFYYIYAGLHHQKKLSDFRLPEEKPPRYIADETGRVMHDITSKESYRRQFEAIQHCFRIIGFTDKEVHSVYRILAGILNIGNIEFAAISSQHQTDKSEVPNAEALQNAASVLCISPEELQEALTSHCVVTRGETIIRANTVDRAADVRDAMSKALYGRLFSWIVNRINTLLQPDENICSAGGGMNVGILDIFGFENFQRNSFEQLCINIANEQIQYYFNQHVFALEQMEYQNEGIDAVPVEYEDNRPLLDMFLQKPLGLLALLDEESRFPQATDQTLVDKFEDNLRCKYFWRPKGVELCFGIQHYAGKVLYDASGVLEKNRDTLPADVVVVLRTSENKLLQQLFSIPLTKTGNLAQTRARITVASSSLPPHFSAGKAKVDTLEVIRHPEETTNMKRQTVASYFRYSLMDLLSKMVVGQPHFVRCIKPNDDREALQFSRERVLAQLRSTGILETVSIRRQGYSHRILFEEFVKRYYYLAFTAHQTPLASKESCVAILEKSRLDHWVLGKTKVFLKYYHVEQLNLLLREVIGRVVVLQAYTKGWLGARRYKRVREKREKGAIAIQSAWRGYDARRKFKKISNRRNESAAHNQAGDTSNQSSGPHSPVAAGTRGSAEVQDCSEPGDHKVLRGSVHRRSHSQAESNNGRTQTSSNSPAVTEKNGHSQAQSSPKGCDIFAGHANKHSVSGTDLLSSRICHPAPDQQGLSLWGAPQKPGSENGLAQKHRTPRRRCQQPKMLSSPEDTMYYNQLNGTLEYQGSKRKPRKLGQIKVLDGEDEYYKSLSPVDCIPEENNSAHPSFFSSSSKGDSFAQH

Question: With `CC[C@H](C)n1cc(C)c2c(C(=O)NCc3c(C)cc(C)[nH]c3=O)cc(-c3ccc(N4CCNCC4)nc3)cc21` as the compound, how does the residual activity [1] read?
Answer: Its residual activity is 80.5%.

Question: What about the residual activity [2] of the same compound?
Answer: Its residual activity is 54%.

Question: What about the residual activity [3] of the same compound?
Answer: Its residual activity is 106%.

Question: And the residual activity [4]?
Answer: Its residual activity is 99.5%.

Question: What about the residual activity [5] of the same compound?
Answer: The residual activity was 92%.

Question: What about the residual activity [6] of the same compound?
Answer: Its residual activity is 102%.

Question: And the residual activity [7]?
Answer: The residual activity was 102%.

Question: What about the residual activity [8] of the same compound?
Answer: Its residual activity is 81.5%.

Question: And the residual activity [9]?
Answer: The residual activity was 99.5%.

Question: What about the residual activity [10] of the same compound?
Answer: The residual activity was 102%.

Question: What about the residual activity [11] of the same compound?
Answer: Its residual activity is 92%.

Question: And the residual activity [12]?
Answer: The residual activity was 92.5%.

Question: And the residual activity [13]?
Answer: Its residual activity is 98%.

Question: What about the residual activity [14] of the same compound?
Answer: The residual activity was 97%.

Question: What about the residual activity [15] of the same compound?
Answer: Its residual activity is 98%.

Question: What about the residual activity [16] of the same compound?
Answer: Its residual activity is 100%.

Question: And the residual activity [17]?
Answer: The residual activity was 100%.

Question: What about the residual activity [18] of the same compound?
Answer: Its residual activity is 96.5%.

Question: What about the residual activity [19] of the same compound?
Answer: The residual activity was 103%.

Question: What about the residual activity [20] of the same compound?
Answer: The residual activity was 88%.

Question: And the residual activity [21]?
Answer: Its residual activity is 91.5%.

Question: And the residual activity [22]?
Answer: Its residual activity is 98.5%.

Question: What about the residual activity [23] of the same compound?
Answer: Its residual activity is 93%.

Question: And the residual activity [24]?
Answer: The residual activity was 97%.

Question: What about the residual activity [25] of the same compound?
Answer: Its residual activity is 102%.

Question: And the residual activity [26]?
Answer: Its residual activity is 89.5%.

Question: And the residual activity [27]?
Answer: The residual activity was 90%.

Question: And the residual activity [28]?
Answer: Its residual activity is 97.5%.

Question: And the residual activity [29]?
Answer: Its residual activity is 102%.

Question: What about the residual activity [30] of the same compound?
Answer: Its residual activity is 102%.

Question: What about the residual activity [31] of the same compound?
Answer: The residual activity was 94.5%.

Question: And the residual activity [32]?
Answer: The residual activity was 100%.

Question: What about the residual activity [33] of the same compound?
Answer: The residual activity was 103%.

Question: And the residual activity [34]?
Answer: Its residual activity is 88%.

Question: What about the residual activity [35] of the same compound?
Answer: Its residual activity is 93.5%.

Question: And the residual activity [36]?
Answer: Its residual activity is 106%.

Question: And the residual activity [37]?
Answer: The residual activity was 89%.

Question: What about the residual activity [38] of the same compound?
Answer: Its residual activity is 106%.

Question: And the residual activity [39]?
Answer: The residual activity was 97%.

Question: And the residual activity [40]?
Answer: The residual activity was 89.5%.

Question: And the residual activity [41]?
Answer: The residual activity was 90.5%.

Question: And the residual activity [42]?
Answer: The residual activity was 100%.

Question: And the residual activity [43]?
Answer: The residual activity was 78.5%.

Question: What about the residual activity [44] of the same compound?
Answer: The residual activity was 95.5%.
